These results are taken from patent US20170326125A1, “MULTISUBSTITUTED AROMATIC COMPOUNDS AS INHIBITORS OF THROMBIN” (VERSEON CORPORATION, priority 2016, published 2017).

One assay deals with T1, Human thrombin (Homo sapiens, UniProt P00734).
T1 construct: purchased Haematologic Technologies Inc
Put plainly: Inhibition of the protease activity of thrombin (chromogenic substrate S-2238). The format is biochemical. Particulars: inhibition of the protease activity of thrombin.
Consider `O=C(Nc1ccccc1Cl)n1nc(-c2cccnc2)nc1NCc1ccc(F)cc1` [Cmpd 200, N-(2-chlorophenyl)-5-[(4-fluorophenyl)methyl]amino-3-(pyridin-3-yl)-1H-1,2,4-triazole-1-carboxamide], for which the 50% inhibitory concentration (IC50) was > 1000 nM.

In turn, `COc1ccccc1C(=O)n1nc(-c2ccccn2)cc1NCc1ccco1` [Cmpd 201, N-(furan-2-ylmethyl)-1-[(2-methoxyphenyl)carbonyl]-3-(pyridin-2-yl)-1H-pyrazol-5-amine] showed a half-inhibitory concentration (IC50) of 100 to 1000 nM.

In turn, `COc1ccccc1C(=O)n1nc(-c2ccccn2)cc1NCc1ccoc1` [Cmpd 202, N-(furan-3-ylmethyl)-1-[(2-methoxyphenyl)carbonyl]-3-(pyridin-2-yl)-1H-pyrazol-5-amine] had an IC50 of 100 to 1000 nM.

Consider `Fc1ccc(CNc2nc(-c3ccccn3)nn2CCc2ccccc2)cc1` [Cmpd 203, N-[(4-fluorophenyl)methyl]-1-(2-phenylethyl)-3-(pyridin-2-yl)-1H-1,2,4-triazol-5-amine], for which the 50% inhibitory concentration (IC50) is > 1000 nM.

Regarding `Fc1ccc(CNc2nc(-c3ccccn3)n(CCc3ccccc3)n2)cc1` [Cmpd 204, N-[(4-fluorophenyl)methyl]-1-(2-phenylethyl)-5-(pyridin-2-yl)-1H-1,2,4-triazol-3-amine], the IC50 was > 1000 nM.

`COc1cc(C)ccc1C(=O)n1nc(-c2ccccc2)nc1NCc1ccc(F)cc1` [Cmpd 205, N-[(4-fluorophenyl)methyl]-1-[(2-methoxy-4-methylphenyl)carbonyl]-3-phenyl-1H-1,2,4-triazol-5-amine] registered a concentration for half-maximal inhibition (IC50) of 100 to 1000 nM.

In the case of `COc1ccccc1C(=O)n1nc(-c2ccncc2)nc1NCc1ccc(F)cc1` [Cmpd 207, N-[(4-fluorophenyl)methyl]-1-[(2-methoxyphenyl)carbonyl]-3-(pyridin-4-yl)-1H-1,2,4-triazol-5-amine], the IC50 is < 100 nM.

Regarding `COc1ccccc1C(=O)n1nc(-c2ccccc2)cc1NCc1ccc(F)cc1` [Cmpd 208, N-[(4-fluorophenyl)methyl]-1-[(2-methoxyphenyl)carbonyl]-3-phenyl-1H-pyrazol-5-amine], the IC50 is > 1000 nM.

As to `Cc1ccccc1C(=O)n1nc(-c2ccccc2)nc1NCc1ccc(F)cc1` [Cmpd 209, N-[(4-fluorophenyl)methyl]-1-[(2-methylphenyl)carbonyl]-3-phenyl-1H-1,2,4-triazol-5-amine], the IC50 lay within 100 to 1000 nM.

Regarding `O=C(c1ccco1)n1nc(-c2ccccn2)nc1NCc1ccc(F)cc1` [Cmpd 210, N-[(4-fluorophenyl)methyl]-1-[(furan-2-yl)carbonyl]-3-(pyridin-2-yl)-1H-1,2,4-triazol-5-amine], the IC50 was < 100 nM.

For the compound `O=C(c1ccco1)n1nc(-c2ccncc2)nc1NCc1ccc(F)cc1` [Cmpd 211, N-[(4-fluorophenyl)methyl]-1-[(furan-2-yl)carbonyl]-3-(pyridin-4-yl)-1H-1,2,4-triazol-5-amine], the IC50 is < 100 nM.

Regarding `O=C(c1ccoc1)n1nc(-c2ccccn2)nc1NCc1ccc(F)cc1` [Cmpd 212, N-[(4-fluorophenyl)methyl]-1-[(furan-3-yl)carbonyl]-3-(pyridin-2-yl)-1H-1,2,4-triazol-5-amine], the half-maximal inhibitory concentration (IC50) was < 100 nM.

As for `O=C(c1ccoc1)n1nc(-c2cccnc2)nc1NCc1ccc(F)cc1` [Cmpd 213, N-[(4-fluorophenyl)methyl]-1-[(furan-3-yl)carbonyl]-3-(pyridin-3-yl)-1H-1,2,4-triazol-5-amine], the IC50 is < 100 nM.

Still in this assay, the particulars now being: inhibition of the protease activity of thrombin; class symbols a/b/c.
For the compound `CC(=O)c1cc(-c2ccccn2)nn1CCc1ccc(F)cc1` [Cmpd 164, 1-1-[2-(4-fluorophenyl)ethyl]-3-(pyridin-2-yl)-1H-pyrazol-5-ylethan-1-one], the IC50 is > 1000 nM.

`CC(C)(C)C(=O)n1nc(-c2ccccn2)cc1NCc1ccoc1` [Cmpd 166, 1-5-[(furan-3-ylmethyl)amino]-3-(pyridin-2-yl)-1H-pyrazol-1-yl-2,2-dimethylpropan-1-one] displayed an IC50 of 100 to 1000 nM.

In the case of `CC(C)(C)C(=O)Nc1nc(C(=O)N2CCOCC2)n[nH]1` [Cmpd 169, 2,2-dimethyl-N-3-[(morpholin-4-yl)carbonyl]-1H-1,2,4-triazol-5-ylpropanamide], the half-maximal inhibitory concentration (IC50) is > 1000 nM.

As to `O=C(Nc1nc(C(=O)N2CCOCC2)n[nH]1)c1ccccc1Cl` [Cmpd 170, 2-chloro-N-3-[(morpholin-4-yl)carbonyl]-1H-1,2,4-triazol-5-ylbenzamide], the IC50 is > 1000 nM.

Regarding `O=C(Nc1nc(C(=O)N2CCCC2)n[nH]1)c1ccccc1Cl` [Cmpd 171, 2-chloro-N-3-[(pyrrolidin-1-yl)carbonyl]-1H-1,2,4-triazol-5-ylbenzamide], the half-inhibitory concentration (IC50) was > 1000 nM.

`O=C(Oc1ccccc1Cl)n1nc(-c2cccnc2)nc1NCc1ccc(F)cc1` [Cmpd 172, 2-chlorophenyl 5-[(4-fluorophenyl)methyl]amino-3-(pyridin-3-yl)-1H-1,2,4-triazole-1-carboxylate]: the half-maximal inhibitory concentration (IC50) was > 1000 nM.

As to `O=C(Oc1ccccc1F)n1nc(-c2cccnc2)nc1NCc1ccc(F)cc1` [Cmpd 173, 2-fluorophenyl 5-[(4-fluorophenyl)methyl]amino-3-(pyridin-3-yl)-1H-1,2,4-triazole-1-carboxylate], the IC50 is > 1000 nM.

`CC(=O)Oc1ccccc1C(=O)n1nc(-c2ccccn2)nc1NCc1ccccc1` [Cmpd 177, 2-[5-(benzylamino)-3-(pyridin-2-yl)-1H-1,2,4-triazol-1-yl]carbonylphenyl acetate]: the half-maximal inhibitory concentration (IC50) was < 100 nM.

`c1cncc(-c2n[nH]c(NCc3cccs3)n2)c1` [Cmpd 178, 3-(pyridin-3-yl)-N-(thiophen-2-ylmethyl)-1H-1,2,4-triazol-5-amine]: the IC50 was > 1000 nM.

With `CCC(=O)n1nc(-c2cccnc2)nc1NCc1cccc(C#N)c1` [Cmpd 179, 3-([1-propanoyl-3-(pyridin-3-yl)-1H-1,2,4-triazol-5-yl]aminomethyl)benzonitrile], the half-maximal inhibitory concentration (IC50) was > 1000 nM.

As for `CSc1nc(-c2cccnc2)nn1C(=O)c1ccccc1Cl` [Cmpd 180, 3-1-[(2-chlorophenyl)carbonyl]-5-(methylsulfanyl)-1H-1,2,4-triazol-3-ylpyridine], the half-inhibitory concentration (IC50) was < 100 nM.

Consider `O=C(c1ccccc1Cl)n1nc(-c2cccnc2)nc1SCc1ccc(F)cc1` [Cmpd 181, 3-1-[(2-chlorophenyl)carbonyl]-5-[(4-fluorophenyl)methyl]sulfanyl-1H-1,2,4-triazol-3-ylpyridine], for which the IC50 was 100 to 1000 nM.

Take `COc1ccccc1C(=O)n1nc(-c2cccnc2)nc1SC` [Cmpd 182, 3-1-[(2-methoxyphenyl)carbonyl]-5-(methylsulfanyl)-1H-1,2,4-triazol-3-ylpyridine]: the IC50 was < 100 nM.

In the case of `O=C(Nc1ccccc1)c1cn(-c2ccccn2)nc1NCc1ccc(F)cc1` [Cmpd 183, 3-[(4-fluorophenyl)methyl]amino-N-phenyl-1-(pyridin-2-yl)-1H-pyrazole-4-carboxamide], the IC50 was > 1000 nM.

`O=C(Nc1nc(C(=O)N2CCOCC2)n[nH]1)c1ccc(Cl)cc1` [Cmpd 184, 4-chloro-N-3-[(morpholin-4-yl)carbonyl]-1H-1,2,4-triazol-5-ylbenzamide]: the 50% inhibitory concentration (IC50) is > 1000 nM.

With `Cc1ccc(C(=O)Nc2nc(C(=O)N3CCOCC3)n[nH]2)cc1` [Cmpd 185, 4-methyl-N-3-[(morpholin-4-yl)carbonyl]-1H-1,2,4-triazol-5-ylbenzamide], the half-inhibitory concentration (IC50) was > 1000 nM.

For the compound `CN(C)C(=O)c1n[nH]c(C(=O)Nc2ccccc2Cl)n1` [Cmpd 186, 5-C-(2-chlorobenzene)-3-N,3-N-dimethyl-1H-1,2,4-triazole-3,5-dicarboxamide], the IC50 was > 1000 nM.

In the case of `CNC(=O)c1n[nH]c(C(=O)Nc2ccccc2Cl)n1` [Cmpd 187, 5-C-(2-chlorobenzene)-3-N-methyl-1H-1,2,4-triazole-3,5-dicarboxamide], the IC50 was > 1000 nM.

As for `CN(C)C(=O)n1nc(-c2cccnc2)nc1NCc1ccc(F)cc1` [Cmpd 188, 5-[(4-fluorophenyl)methyl]amino-N,N-dimethyl-3-(pyridin-3-yl)-1H-1,2,4-triazole-1-carboxamide], the IC50 is > 1000 nM.

Turning to `CC(C)NC(=O)n1nc(-c2cccnc2)nc1NCc1ccc(F)cc1` [Cmpd 190, 5-[(4-fluorophenyl)methyl]amino-N-(propan-2-yl)-3-(pyridin-3-yl)-1H-1,2,4-triazole-1-carboxamide], the 50% inhibitory concentration (IC50) was > 1000 nM.

For `O=C(Nc1ccccc1)n1nc(-c2cccnc2)nc1NCc1ccc(F)cc1` [Cmpd 191, 5-[(4-fluorophenyl)methyl]amino-N-phenyl-3-(pyridin-3-yl)-1H-1,2,4-triazole-1-carboxamide], the IC50 was > 1000 nM.

In turn, `CCOC(=O)n1nc(-c2cccnc2)nc1NCc1ccc(F)cc1` [Cmpd 192, ethyl 5-[(4-fluorophenyl)methyl]amino-3-(pyridin-3-yl)-1H-1,2,4-triazole-1-carboxylate] gave an IC50 of 100 to 1000 nM.

With `COC(=O)c1n[nH]c(NC(=O)c2ccccc2F)n1` [Cmpd 193, methyl 5-[(2-fluorobenzene)amido]-1H-1,2,4-triazole-3-carboxylate], the half-maximal inhibitory concentration (IC50) is > 1000 nM.

Turning to `COC(=O)c1n[nH]c(NC(=O)c2ccccc2OC)n1` [Cmpd 194, methyl 5-[(2-methoxybenzene)amido]-1H-1,2,4-triazole-3-carboxylate], the IC50 was > 1000 nM.

Turning to `COC(=O)c1n[nH]c(NC(=O)c2cccc(Cl)c2)n1` [Cmpd 195, methyl 5-[(3-chlorobenzene)amido]-1H-1,2,4-triazole-3-carboxylate], the IC50 is > 1000 nM.

Regarding `COC(=O)c1n[nH]c(NC(=O)c2ccc(C)cc2)n1` [Cmpd 196, methyl 5-[(4-methylbenzene)amido]-1H-1,2,4-triazole-3-carboxylate], the IC50 is > 1000 nM.

Turning to `COc1ccccc1C(=O)n1nc(-c2ccccn2)nc1NCc1cc2ccccc2s1` [Cmpd 198, N-(1-benzothiophen-2-ylmethyl)-1-[(2-methoxyphenyl)carbonyl]-3-(pyridin-2-yl)-1H-1,2,4-triazol-5-amine], the IC50 was > 1000 nM.

Take `COc1ccccc1C(=O)n1nc(-c2ccccn2)nc1NCc1csc2ccccc12` [Cmpd 199, N-(1-benzothiophen-3-ylmethyl)-1-[(2-methoxyphenyl)carbonyl]-3-(pyridin-2-yl)-1H-1,2,4-triazol-5-amine]: the 50% inhibitory concentration (IC50) was > 1000 nM.
